Measurements published in ChEMBL document CHEMBL1126377, “Synthesis of 9-[2-(phosphonomethoxy)ethylamino]adenine and 9-[(phosphonomethoxy)acetamido]adenine, analogues of a potent anti-HIV acyclonucleotide” (Bioorg Med Chem Lett, 1992).
The source made the active and inactive calls. The rule behind the calls is not given here.

Experiments:
Type in all cases: functional, organism-based
[1] = tested on: Human immunodeficiency virus 1; assay: Inhibition of the replication of human immunodeficiency virus (HIV) at 10 uM concentration
[2] = tested on: Human alphaherpesvirus 2; assay: Effect on replication of herpes simplex virus type 2 at a concentration of 300 uM; NE=No effect
[3] = tested on: Human alphaherpesvirus 3; assay: Effect on replication of varicella zoster virus at a concentration of 300 uM; NE=No effect
[4] = tested on: Cytomegalovirus; assay: Effect on replication of cytomegalovirus at a concentration of 300 uM; NE=No effect
[5] = tested on: Human alphaherpesvirus 1; assay: Effect on replication of herpes simplex virus type 1 at a concentration of 300 uM; NE=No effect
[6] = tested on: Human immunodeficiency virus 1; assay: Inhibition of the replication of human immunodeficiency virus (HIV) at 10 uM concentration; NE=No effect

Row | IC50 [1] | Structure (SMILES) | Activity [2] | Activity [3] | Activity [4] | Activity [5] | Activity [6]
1 | 0.3 µM | Nc1ncnc2c1ncn2OCCOCP(=O)(O)O |  |  |  |  | 
2 | 10 µM | Nc1ncnc2c1ncn2OCC/C=C/P(=O)(O)O |  |  |  |  | 
3 |  | Nc1ncnc2c1ncn2NC(=O)COCP(=O)(O)O | inactive | inactive | inactive | inactive | inactive
4 |  | Nc1ncnc2c1ncn2NCCOCP(=O)(O)O | inactive | inactive | inactive | inactive | inactive
